{"source": "paper PMC12521527", "about": "“In vivo self-assembled nano-PROTAC for the dual degradation of AR and HSP90 to overcome castration-resistant prostate cancer resistance” (Signal Transduction and Targeted Therapy, 2025)", "key": {"[1]": {"tested_on": "RWPE-1 (PSMA^low) and 22Rv1 (PSMA^high) cells", "assay": "Uptake in RWPE-1 versus 22Rv1 cells (flow cytometry, IF)", "type": "cell-based", "protocol": "Fig. 2 a Representative 22Rv1 cell CLSM images of FITC-labeled Psa-AR (40 μM) assembly (green channel) interacting with PSMA (red channel) and its colocalization analysis (1–1’). Scale bar: 10 μm. b Representative SEM images of 22Rv1 cells after treatment with Psa-AR (40 μM) for 4 h. Scale bar: 1 μm. Scale bar: 200 nm (zoom in). c Representative 22Rv1 cell CLSM images of FITC-labeled P-AR (40 μM) (green channel) interacting with PSMA (red channel). Scale bar: 10 μm. d Representative SEM images of 22Rv1 cells after treatment with P-AR (40 μM) for 4 h. Scale bar: 1 μm. Scale bar: 200 nm (zoom in). e The uptake of either Psa-AR or P-AR by 22Rv1 (PSMA^high) and RWPE-1 (PSMA^low) cells was examined by flow cytometry, followed by comprehensive quantitative analysis (f), n = 3 per group. g Representative 22Rv1 cell CLSM images of FITC-labeled Psa-AR assembly (green channel) with lysosomes (red channel) and colocalization analysis. Scale bar: 10 μm. h Representative CLSM images of 22Rv1 cells after incubation with FITC-labeled Psa-AR (green channel) for 12 h. […]\nA total of 1 × 10^5 22Rv1 cells per well were seeded in 6-well plates in DMEM containing 10% fetal bovine serum and 1% penicillin‒streptomycin. […] Then, the cells were collected to evaluate fluorescence expression via flow cytometry. […] The cells were then collected and analyzed for fluorescence expression via flow cytometry."}, "[2]": {"tested_on": "22Rv1 cells", "type": "cell-based", "conditions": "n = 6, read-out: IC50, cell viability"}, "[3]": {"biological_target": "PSMA protein (Homo sapiens, UniProt Q04609)", "sequence (Q04609 whole entry)": "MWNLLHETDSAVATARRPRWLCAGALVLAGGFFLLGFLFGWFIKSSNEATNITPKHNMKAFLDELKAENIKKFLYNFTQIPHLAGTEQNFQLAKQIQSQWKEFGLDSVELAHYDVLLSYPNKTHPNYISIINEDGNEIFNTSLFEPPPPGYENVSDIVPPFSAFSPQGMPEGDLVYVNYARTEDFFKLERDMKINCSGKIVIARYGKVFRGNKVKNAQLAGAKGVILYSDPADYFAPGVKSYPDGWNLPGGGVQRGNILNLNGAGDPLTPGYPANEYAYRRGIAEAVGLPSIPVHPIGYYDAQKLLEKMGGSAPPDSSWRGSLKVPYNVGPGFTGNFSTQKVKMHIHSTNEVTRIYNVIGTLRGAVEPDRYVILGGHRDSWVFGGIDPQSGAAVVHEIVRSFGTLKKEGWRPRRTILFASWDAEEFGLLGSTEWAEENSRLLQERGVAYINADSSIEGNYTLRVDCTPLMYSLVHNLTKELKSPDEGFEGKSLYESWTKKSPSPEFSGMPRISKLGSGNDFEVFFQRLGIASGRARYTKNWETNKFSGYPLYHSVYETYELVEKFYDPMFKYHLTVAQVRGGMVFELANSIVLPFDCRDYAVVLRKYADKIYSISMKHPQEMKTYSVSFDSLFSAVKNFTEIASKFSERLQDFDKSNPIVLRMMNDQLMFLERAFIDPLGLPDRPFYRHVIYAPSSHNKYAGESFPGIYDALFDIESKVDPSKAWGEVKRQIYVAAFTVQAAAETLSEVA", "assay": "MST binding affinity, Psa-AR and PSMA protein", "conditions": "RED-NHS-labeled PSMA 400 nM, PBS-T (0.05% Tween 20), 22 °C, n = 3, read-out: Kd, binding affinity between Psa-AR and PSMA", "protocol": "Fig. 1 Protein-induced self-assembly behaviors of Psa-AR in vitro. a Six tissue samples from patients with prostate tumors (1–6) and six from patients with normal prostates (1’–6’) were obtained clinically. The expression of CRBN in these samples was analyzed by immunohistochemistry (IHC).\nMST (NanoTemper Technologies GmbH, Munich, Germany) was utilized to evaluate the binding affinity between Psa-AR and RED-NHS-labeled PSMA, AR, or CRBN proteins. The PSMA, AR, and CRBN proteins were labeled with the Protein Labeling Kit RED-NHS 2nd Generation (Amine Reactive). RED-PSMA, RED-AR, and RED-CRBN proteins were diluted to a final concentration of 400 nM with PBS-T buffer (0.05% Tween 20), where the fluorescence signals satisfied the typical detection limit of the Monolith NT.115 instrument (NanoTemper Technologies). The binding affinity between Psa-AR and the RED-NHS-labeled AR protein was assessed. […] Then, 10 µL of RED-CRBN was added to each sample to achieve a final concentration of 400 nM. After incubation for 20 min, the samples were loaded into standard/premium-treated capillaries. All the experiments were performed at 22 °C. The data were analyzed by NanoTemper analysis software."}, "[4]": {"assay": "TEM of assemblies after PSMA addition", "type": "physicochemical", "conditions": "40 μM, within 0.5 h of PSMA engagement"}, "[5]": {"assay": "Cellular cytotoxicity, LNCaP", "type": "cell-based", "conditions": "human, LNCaP cells"}}, "note": "Numbered stars: 1 amine (or outer) side, 2 acyl side, 3 side chain; on linkers, the order of the positions; unused ones are H or OH. Square brackets hold non-standard residues; d marks the D form. Peptide text beside a SMILES is read from it. * marks the point of attachment. X2 = CC1(C)C(=O)N(c2ccc(C#N)c(C(F)(F)F)c2)C(=S)N1c1ccc(C(=O)*)c(F)c1; X1 = O=C1CCC(N2C(=O)c3cccc(N(CC(=O)[*:2])[*:1])c3C2=O)C(=O)N1; EuK = O=C(O)CC[C@H](NC(=O)N[C@@H](CCCCN*)C(=O)O)C(=O)O; 2Nal = N[C@@H](Cc1ccc2ccccc2c1)C(=O)O"}
{"smiles": "CC1(C)C(=O)N(c2ccc(C#N)c(C(F)(F)F)c2)C(=S)N1c1ccc(C(=O)NCCCC[C@H](NC(=O)CNc2cccc3c2C(=O)N(C2CCC(=O)NC2=O)C3=O)C(=O)N[C@@H](CS)C(=O)N[C@@H](CCC(N)=O)C(=O)N[C@@H](Cc2ccc(O)cc2)C(=O)N[C@@H](CC(N)=O)C(=O)N[C@@H](CCC(N)=O)C(=O)N[C@@H](Cc2ccc(O)cc2)C(=O)N[C@@H](Cc2ccc(O)cc2)C(=O)N[C@@H](Cc2ccc3ccccc3c2)C(=O)NCCCC[C@H](NC(=O)N[C@@H](CCC(=O)O)C(=O)O)C(=O)O)c(F)c1", "note": "(stereo partly shown) [Psa-AR] (H-[X1]K(X2)CQYNQYY[2Nal]-EuK)", "values": [{"measurement": "selectivity ratio between PSMA^low RWPE-1 and PSMA^high 22Rv1 cells, relative to P-AR", "setting": "[1]; FITC-labeled, 40 µM, 24 h, flow cytometry, n = 3", "result": 13, "unit": "fold"}, {"measurement": "cellular uptake in RWPE-1 cells", "setting": "[1]; IF, RWPE-1 (PSMA^low) cells", "result": "low cellular uptake"}, {"measurement": "IC50", "setting": "[2]", "result": "10.9 ± 1.1", "unit": "µM"}, {"measurement": "Kd", "setting": "[3]", "result": 0.0072, "unit": "µM"}, {"measurement": "diameter of spherical nanoparticles", "setting": "[4]", "result": "200–250 nm"}, {"measurement": "IC50", "setting": "[5]", "result": "11.1 ± 1.4", "unit": "µM"}, {"measurement": "FTIR amide I peak with PSMA", "result": 1630, "unit": "cm⁻¹"}]}
